Results from patent US20030212123A1, “COX-2 selective carprofen for treating pain and inflammation in dogs” (Pfizer Inc., priority 1997, published 2003).
“And” between values parts separate entries of the source, which are not always exact repeats. Equal entries are not always repeated. Where two headings read alike, the source gives them in different places.

Key:
COX-1 [1] = target: T1, COX-1 (Rattus norvegicus, UniProt Q63921); test: Rat in vivo COX-1: PGE2 production in mucosal lining of stomach (Griffiths et al.)
T1 construct: as measured in the mucosal lining of the rat stomach; from tissue; host or cells: mucosal lining of the rat stomach, in vivo
T1 sequence (Q63921 27-602): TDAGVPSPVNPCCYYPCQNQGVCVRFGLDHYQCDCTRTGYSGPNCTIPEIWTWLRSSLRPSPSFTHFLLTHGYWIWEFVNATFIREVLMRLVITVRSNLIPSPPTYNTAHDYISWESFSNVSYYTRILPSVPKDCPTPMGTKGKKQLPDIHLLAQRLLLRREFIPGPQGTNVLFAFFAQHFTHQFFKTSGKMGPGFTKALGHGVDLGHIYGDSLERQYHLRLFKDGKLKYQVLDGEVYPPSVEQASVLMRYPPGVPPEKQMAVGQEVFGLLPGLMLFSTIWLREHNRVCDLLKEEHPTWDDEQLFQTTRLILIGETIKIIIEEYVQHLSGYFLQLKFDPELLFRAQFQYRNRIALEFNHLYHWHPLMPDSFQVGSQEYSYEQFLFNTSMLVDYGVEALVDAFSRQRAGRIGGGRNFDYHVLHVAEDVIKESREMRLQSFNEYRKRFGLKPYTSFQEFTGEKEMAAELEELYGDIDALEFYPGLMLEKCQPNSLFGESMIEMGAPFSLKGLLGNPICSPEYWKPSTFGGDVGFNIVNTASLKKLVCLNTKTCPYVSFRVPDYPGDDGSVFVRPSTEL
Experimental: (§1) In vivo cyclo-oxygenase selectivity was evaluated in rats by the method of Griffiths et al., described in Agents & Actions, 32, (1991), 313-320. […] Synovial fluid is secreted by the synovial membrane and is contained in joint cavities. During joint inflammation, COX-2 is induced in joint tissues and prostaglandin products accumulate in the synovial fluid. […] Inhibition of this stomach isozyme results in adverse gastrointestinal side effects.

[2] = target: COX-2 (derived from lipopolysaccharide stimulated J774.2 macrophages) (Mus musculus, UniProt Q05769); conditions: cited from earlier work
Sequence of COX-2 (derived from lipopolysaccharide stimulated J774.2 macrophages) (Q05769 18-604): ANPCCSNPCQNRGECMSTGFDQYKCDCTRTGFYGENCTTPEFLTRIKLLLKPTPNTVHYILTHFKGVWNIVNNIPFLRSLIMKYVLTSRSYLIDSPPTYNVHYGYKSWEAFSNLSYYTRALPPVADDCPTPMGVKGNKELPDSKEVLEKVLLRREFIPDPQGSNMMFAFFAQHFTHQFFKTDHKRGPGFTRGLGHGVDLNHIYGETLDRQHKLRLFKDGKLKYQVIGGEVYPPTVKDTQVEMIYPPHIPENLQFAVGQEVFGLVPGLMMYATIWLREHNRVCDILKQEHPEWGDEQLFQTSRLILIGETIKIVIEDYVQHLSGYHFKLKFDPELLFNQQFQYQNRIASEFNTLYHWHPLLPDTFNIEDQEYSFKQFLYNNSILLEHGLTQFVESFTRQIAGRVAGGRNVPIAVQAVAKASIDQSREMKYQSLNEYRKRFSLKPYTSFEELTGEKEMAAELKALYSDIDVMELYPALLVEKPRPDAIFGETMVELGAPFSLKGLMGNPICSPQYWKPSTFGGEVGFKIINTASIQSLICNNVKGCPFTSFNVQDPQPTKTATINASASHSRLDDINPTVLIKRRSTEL

COX-2 = COX-2 (Rattus norvegicus, UniProt P35355); test: in vivo; conditions: read-out: COX-2 ED50
Sequence of COX-2 (P35355 18-604): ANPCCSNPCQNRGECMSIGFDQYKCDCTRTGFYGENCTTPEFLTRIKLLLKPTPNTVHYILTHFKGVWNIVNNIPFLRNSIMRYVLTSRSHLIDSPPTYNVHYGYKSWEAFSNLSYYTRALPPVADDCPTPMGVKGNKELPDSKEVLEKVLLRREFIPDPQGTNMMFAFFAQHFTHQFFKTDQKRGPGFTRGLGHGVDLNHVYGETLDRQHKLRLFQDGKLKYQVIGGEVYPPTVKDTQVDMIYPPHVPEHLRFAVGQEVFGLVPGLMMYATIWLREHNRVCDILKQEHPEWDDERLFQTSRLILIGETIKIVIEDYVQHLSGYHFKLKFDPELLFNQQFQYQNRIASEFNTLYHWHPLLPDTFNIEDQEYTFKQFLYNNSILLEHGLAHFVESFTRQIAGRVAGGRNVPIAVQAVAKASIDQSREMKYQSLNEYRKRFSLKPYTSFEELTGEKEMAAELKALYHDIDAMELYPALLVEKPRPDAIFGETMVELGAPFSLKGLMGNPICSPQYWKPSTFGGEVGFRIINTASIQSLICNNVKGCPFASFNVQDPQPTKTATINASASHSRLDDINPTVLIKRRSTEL
Experimental: as §1

[3] = at equipotent anti-inflammatory activity with indomethacin, Holtsinger et al.; cited from earlier work
[4] = Total plasma carprofen concentration by chiral HPLC, Example 3; format: in vivo, dog; conditions: individual dogs
Description: (§2) The ether layer was separated, then back-extracted with 0.005 M Na2CO3, after which the organic phase was discarded by aspiration. The aqueous phase was buffered with 0.05 M citric acid pH 5.1, then was again extracted with diethyl ether:dichloromethane. The ether was then transferred to clean tubes, evaporated under a stream of nitrogen, and the residue reconstituted in HPLC mobile phase for analysis.
as §2

[5] = Systemic clearance estimated from oral pharmacokinetics; format: in vivo, dog; conditions: estimated from pharmacokinetics after oral 2 mg/lb to dogs, F assumed 1, AUC extrapolated to infinity
Experimental: where Css is the steady state plasma carprofen concentration, R0 is the input rate, and Cl is the systemic clearance.
where F is the bioavailability (assumed to be 1 for an implant), D is the oral dose, and AUC is the average area under the plasma carprofen concentration vs. time curve, extrapolated to infinity.
A total dose of 3.6 mg/lb or 8.4 mg/lb or 36 mg/lb would be required for 3, 7, or 30 day therapy, respectively. In summary, an implant containing 8.4 mg carprofen per lb body weight, releasing carprofen at a rate of 50 μg per lb of body weight per hr, maintains a plasma carprofen concentration of 10 μg/mL for 7 days. This will maintain 80% COX-2 inhibition for 7 days.

COX-1 [6] = target: T2, COX-1 (Canis lupus familiaris, UniProt Q8HZR1); test: Ex vivo COX-1 whole blood assay (TXB2) run in the carrageenan study, Example 4; set-up: species or system dog; conditions: 2 mg/kg PO, any of the timepoints tested
T2 construct: using an ex vivo procedure on canine whole blood; from tissue; host or cells: whole blood of dosed dogs, stimulated with calcium ionophore A23187
T2 sequence (Q8HZR1 28-603): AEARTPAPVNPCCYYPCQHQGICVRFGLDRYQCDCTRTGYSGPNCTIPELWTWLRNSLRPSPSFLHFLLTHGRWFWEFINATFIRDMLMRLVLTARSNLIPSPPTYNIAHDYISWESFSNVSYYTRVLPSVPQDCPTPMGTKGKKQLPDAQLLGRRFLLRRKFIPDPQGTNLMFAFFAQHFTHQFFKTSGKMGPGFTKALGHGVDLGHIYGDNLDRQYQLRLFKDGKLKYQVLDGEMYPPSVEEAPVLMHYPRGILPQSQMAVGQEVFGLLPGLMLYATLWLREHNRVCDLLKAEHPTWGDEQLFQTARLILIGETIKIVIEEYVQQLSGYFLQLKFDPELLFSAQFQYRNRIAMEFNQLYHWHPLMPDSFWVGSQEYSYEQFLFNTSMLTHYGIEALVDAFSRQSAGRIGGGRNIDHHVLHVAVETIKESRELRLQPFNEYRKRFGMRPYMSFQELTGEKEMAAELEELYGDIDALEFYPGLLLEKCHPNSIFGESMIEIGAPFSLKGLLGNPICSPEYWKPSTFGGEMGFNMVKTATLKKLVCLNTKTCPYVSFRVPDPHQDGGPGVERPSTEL
Description: The experiment was run in two replicates.
Table 5 illustrates that carrageenan induced almost a 4-fold increase in PGE2 synthesis in the whiffle ball over background levels.

CC(C(=O)O)c1ccc2c(c1)[nH]c1ccc(Cl)cc12 (racemic) [Carprofen (rac.), 6-chloro-α-methyl-9H-carbazole-2-acetic acid]
ED50 (COX-1 [1]): 6.4 mg/kg
IC50 ([2]; read-out: IC50 (μM) COX-2, as shown by Battistini et al.): 11 µM
IC50 ([2]; read-out: IC50 (μg/mL) COX-2, n=9, LPS stimulated J774.2 macrophages): 11 µM
ED50 (COX-2): 0.63 mg/kg
ulcerogenic potential, times less than indomethacin [3]: 16 times
Plasma concentration ([4]; 2 mg/kg PO tablet, 2-hour): 21900 ng/mL and 8600 ng/mL and 17200 ng/mL
Plasma concentration ([4]; 2 mg/kg PO tablet, 4-hour): 13400 ng/mL and 5700 ng/mL and 10600 ng/mL
Plasma concentration ([4]; 4 mg/kg PO tablet, 2-hour): 29900 ng/mL and 29000 ng/mL
Plasma concentration ([4]; 4 mg/kg PO tablet, 4-hour): 21100 ng/mL and 27000 ng/mL
concentration at 2 h ([4]; dog, plasma, oral, 4 mg/kg, 4 mg/kg PO tablet, 2-hour): 37600 ng/mL
concentration at 4 h ([4]; dog, plasma, oral, 4 mg/kg, 4 mg/kg PO tablet, 4-hour): 29100 ng/mL
systemic clearance Cl [5]: 5 mL/hr per lb body weight
ex vivo COX-1 inhibition of TXB2 (COX-1 [6]): no inhibition of TXB2
